Reference: article PMC7478165, “Derivatisation of parthenolide to address chemoresistant chronic lymphocytic leukaemia” (MedChemComm, 2019)
pEC50, pIC50: −log10 of the molar value.

What was measured:
[1] = Hepatocyte stability assay (mouse); format: in vitro ADME; conditions: mouse hepatocytes; for half-life: read-out: Hepatocyte stability (mouse) T1/2
MEC1 CLL cell line [2] = experiment: alamarBlue assay, in vitro antileukaemic activity against MEC1 CLL cell line; format: cell-based; conditions: for LipE pEC50–clog P: MEC1 cell line pEC50 minus calculated log P; for EC50: read-out: pEC50 (converted)
Excerpt: Defective p53-signalling increases genomic instability and drives tumour progression. A high frequency of p53 inactivation is found in relapsed, treatment-resistant, high risk CLL.[30] […] Owing to resource availability a subset of up to ten of these compounds was prioritised for further investigation. Compounds 2d, 2e, 2j, 2aa, 5a, 5d, 5e, 5f, 5ab and 6b were selected on the basis of reasons including ease of synthetic access, diversity across the chemical space probed and novelty. Those prepared under conditions (i)Scheme 1 (2d, 5a and 6b) were available on a scale and in a purity to directly permit follow-up studies, whereas compounds prepared under conditions (ii)Scheme 1 were prepared on a small scale so were resynthesised. These seven compounds (2e, 2j, 2aa, 5d, 5e, 5f and 5ab) were isolated on >30 mg scale in high purity and progressed to more following studies.
Following the identification of 5f as the most promising drug-like derivative of PTL from the aforementioned parallel/high-throughput screening, the anti-leukaemic activity of 5f was tested once more and compared directly with that of PTL (1) and DMAPT (2a), which serve as comparators and positive controls.
Amine 7 was successfully prepared as follows: 4-Piperidinecarboxylic acid was N-Boc protected to deliver 8 in 92% yield.[43] In order to confidently assign the NMR spectra of compound 8 J-MOD, HSQC and ^1H–^1H COSY were helpful, particularly in establishing that a broad resonance in the proton-decoupled ^13C NMR spectrum, centred on 42.8 ppm, corresponds to the ring-carbons bonded to nitrogen. The carboxylic acid of 8 was converted to the corresponding ethyl-3-keto-propanoate 9 in 24% yield. Conversion of 9 to the N-Boc protected congener 10, was achieved by treatment with acetamidine hydrochloride and potassium carbonate, furnishing 10 in 77% yield. Treatment with trifluoroacetic acid delivered desired compound 7 in 99% yield for the Boc-deprotection step (scale 200 mg, 17% over four linear steps). Thus, evidencing accessibility of amine 7 and with it in hand, it was timely to probe any activity arising from the amine alone. MEC1 sensitivity to 1, 5f and 7 was compared in parallel using the alamarBlue® assay (Fig. 6). […] A pre-peer-reviewed preprint of this article was deposited and may be viewed elsewhere.[44]

[3] = Caco-2 permeability assay; format: in vitro ADME; conditions: for efflux ratio / Papp A→B / Papp B→A: human; for efflux ratio: Caco-2, pH 7.4; for Papp A→B / Papp B→A: Caco-2; for Papp A→B: pH 7.4, A to B; for Papp B→A: pH 7.4, B to A
[4] = Microsomal stability assay (mouse); conditions: for Mouse microsomal stability: mouse microsomes; for microsomal CLint: mouse, liver microsomes
[5] = Stability in aqueous solution, pH 7.4; format: physicochemical; conditions: for half-life: pH 7.4, read-out: Stability pH 7.4 T1/2; for stability in aqueous solution: result in words
Protocol: Compounds 2d, 2e, 2f, 2g, 2j, 2aa, 5a, 5d, 5e, 5f, 5ab and 6b were subjected to in vitro DMPK testing. […] The other three (2d, 2j and 2aa) were not retained for further investigation due to poor stability (T1/2 at pH 7.4: 13, 107 and 76 min, Table 1, entries 1, 3 and 4 respectively). One obvious aspect contributing to observed stability is the propensity for PTL derivatives of this type to undergo a retro-amination (reverse-Michael-type mechanism), indeed this reverse reaction is often claimed as a pro-drug mode of action.[29a],[33] […] It is a reasonable assertion that activity observed for these unstable compounds could well be ascribed to free PTL generated rapidly in the assay.

[6] = Murine oral (PO) PK study; format: in vivo; conditions: for Cmax / Tmax / bioavailability / half-life: in vivo, mouse; for bioavailability: read-out: Mouse PK (PO) F%; for half-life: PO 10 mg kg^–1, as worded in text
Protocol: The in vivo oral bioavailability of compounds 5a and 5f was compared in a murine PK study at 10 mg kg^–1 (Fig. 4(a)ii and (b)ii and Table 2). In keeping with the intravenous findings, the murine PO half-life of 5f was twice as long as 5a (1.0 versus 0.5 hours, Table 2) and the Cmax attained by 5f was approximately 40% higher than that achieved by 5a (404 versus 283 ng mL^–1). […] Compound 5f was therefore identified as a promising potential new agent with desirable pharmacological properties towards a therapy for drug-resistant CLL.

[7] = Murine intravenous PK study; format: in vivo; conditions: IV 1 mg kg^–1; for clearance / half-life / Vd: blood, mouse; for clearance: read-out: Mouse PK (IV) Cl; for half-life: read-out: Mouse PK (IV) T1/2 (converted); for Vd: read-out: Mouse PK (IV) VSS
Protocol: In order to determine 5a and 5f are suitable for use as pharmaceutical agents their pharmacokinetic (PK) parameters were next probed. A murine intravenous PK study of compounds 5a and 5f at 1.0 mg kg^–1 was conducted and their concentrations in blood were measured with time (Fig. 4(a)i and (b)i and Table 2).

hERG K+ channel = hERG K+ channel (Homo sapiens, UniProt Q12809); experiment: hERG liability assay, IonWorks patch clamp electrophysiology; format: cell-based; conditions: for pIC50: eight-point curves, maximum test concentration 100 μM; for inhibition at 100 µM: read-out: hERG inhibition at top test concentration
Protocol: Early toxicological screening is an important step in derisking drug discovery programmes and is increasingly accessible.[39]
Three PTL derivatives (2a, 5a and 5f) were tested for inhibition of the hERG K^+ channel (against cisapride as a positive control) using IonWorks patch clamp electrophysiology. […] Eight-point concentration-response curves were generated using three-fold serial dilutions from a maximum final test concentration of 100 μM, results are summarised in Fig. S6. ^†

in vitro = conditions: mouse, microsomes
MEC1 CLL cell line [8] = experiment: cells; design: alamarBlue (resazurin reduction) cytotoxicity assay in MEC1 CLL cells, n = 5; conditions: Homo sapiens, read-out: alamarBlue EC50 (uM) average n=5
Protocol: Comparison of the activity of 5f with 1 (PTL) and 2a (DMAPT) Biological efforts at University of Birmingham Tissue culture, MEC1 cells were obtained from the American Type Culture Collection (Manassas, VA 20110 USA) and were cultured in RPMI 1640 medium (Sigma-Aldrich, Irvine, UK) with 10% fetal bovine serum (Sigma-Aldrich). The alamarBlue® cytotoxicity assay was conducted by seeding MEC1 cells in triplicate at density of 25000 cells/well in a 96 well plate, final volume of 200 μL. Following treatment with test compound, viability was determined by measuring the reduction of resazurin. Resazurin solution was added to each well at a final concentration of 50 μg/mL and incubated for 3 hours at 37 °C with 5% CO2. Reduction of resazurin was determined by measuring […] at 590 nm using a PheraSTAR FS plate reader (BMG Labtech). Cell viability was calculated as a fraction of the untreated cells after subtracting background fluorescence of resazurin in media only. Data is presented as the mean of five independent experiments and significance was determined by Student’s t-test.

[9] = Homo sapiens, MEC1, MEC1 cell line, alamarBlue assay, library screen, read-out: EC50 ave.
[10] = first of two columns headed A to B
[11] = second of two columns headed A to B
[12] = MEC1 cell line, alamarBlue assay, library screen, read-out: EC50 ave.
[13] = Homo sapiens, MEC1, MEC1 cell line
[14] = Homo sapiens, MEC1, MEC1 cells, alamarBlue, direct comparison of 5f with PTL and DMAPT, n = 5, read-out: EC50

Sequence of hERG K+ channel (Q12809 whole entry): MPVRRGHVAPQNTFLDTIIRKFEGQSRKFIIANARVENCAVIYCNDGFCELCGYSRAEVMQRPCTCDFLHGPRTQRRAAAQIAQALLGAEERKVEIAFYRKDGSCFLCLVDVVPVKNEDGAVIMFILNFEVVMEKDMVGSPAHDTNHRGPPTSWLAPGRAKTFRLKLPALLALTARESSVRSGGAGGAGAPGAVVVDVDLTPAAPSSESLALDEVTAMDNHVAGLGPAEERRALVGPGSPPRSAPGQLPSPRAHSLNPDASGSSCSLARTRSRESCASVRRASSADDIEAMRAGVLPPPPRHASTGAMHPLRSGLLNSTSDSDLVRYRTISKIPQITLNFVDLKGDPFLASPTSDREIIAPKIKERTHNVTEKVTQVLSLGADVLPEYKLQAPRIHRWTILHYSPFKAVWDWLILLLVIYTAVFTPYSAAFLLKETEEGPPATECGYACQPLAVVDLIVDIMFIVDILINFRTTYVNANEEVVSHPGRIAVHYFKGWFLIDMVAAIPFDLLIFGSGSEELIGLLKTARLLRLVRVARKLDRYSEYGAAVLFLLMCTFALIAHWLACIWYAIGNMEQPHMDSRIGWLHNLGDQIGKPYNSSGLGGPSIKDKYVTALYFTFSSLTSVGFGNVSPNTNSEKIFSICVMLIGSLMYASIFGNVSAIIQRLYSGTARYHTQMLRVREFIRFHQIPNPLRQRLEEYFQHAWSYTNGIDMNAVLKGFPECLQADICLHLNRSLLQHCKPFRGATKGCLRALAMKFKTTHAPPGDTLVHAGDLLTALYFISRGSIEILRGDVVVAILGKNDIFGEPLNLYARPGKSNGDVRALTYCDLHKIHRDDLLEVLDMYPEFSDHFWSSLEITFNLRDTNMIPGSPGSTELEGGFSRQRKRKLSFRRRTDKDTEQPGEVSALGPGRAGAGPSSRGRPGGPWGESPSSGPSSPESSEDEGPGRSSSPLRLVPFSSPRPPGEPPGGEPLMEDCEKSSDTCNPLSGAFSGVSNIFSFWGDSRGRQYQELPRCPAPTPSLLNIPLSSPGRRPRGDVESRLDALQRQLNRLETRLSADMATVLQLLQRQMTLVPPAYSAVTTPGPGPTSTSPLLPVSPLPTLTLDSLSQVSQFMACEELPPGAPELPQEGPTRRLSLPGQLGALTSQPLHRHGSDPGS

Compound	Hepatocyte stability (mouse) CLint [1]	half-life [1] [h]	pEC50 (MEC1 CLL cell line [2]; [9])	LipE pEC50–clog P (MEC1 CLL cell line [2])	efflux ratio [3]	Papp A→B [3] [×10⁻⁶ cm/s]	Papp B→A [3] [×10⁻⁶ cm/s]	Mouse microsomal stability [4, 10]	Mouse microsomal stability [4, 11]	half-life [5] [h]	pEC50 (MEC1 CLL cell line [2]; [12])	Mouse PK (PO) UC (0-inf) ([6]; PO 10 mg kg^–1) [ng h mL^–1]	Cmax ([6]; PO 10 mg kg^–1) [ng/mL]	Mouse PK (IV) UC (0-inf) [7] [ng h mL^–1]	clearance [7] [mL/min/kg]	half-life [7] [h]	inhibition at 100 µM (hERG K+ channel; human) [%]	other results
C/C1=C\CC[C@@]2(C)O[C@@H]2[C@H]2OC(=O)[C@@H](CN3CCCC3)[C@@H]2CC1 [C00005]	22.0 μL min^–1 per million cells	1.08	5.11	2.35	1	15.9	16.2	19	75	> 2	–	–	–	–	–	–	–	–
C/C1=C\CC[C@@]2(C)O[C@@H]2[C@H]2OC(=O)[C@@H](CN3CCC(c4cc(O)nc(C)n4)CC3)[C@@H]2CC1 [C00008]	22.0 μL min^–1 per million cells	1.07	–	3.69	–	2.7	2.8	18	77	> 2	5.11	–	–	–	–	–	–	Caco-2 pH 7.4 Efflux ratio [3]: 1.1
C/C1=C\CC[C@@]2(C)O[C@@H]2[C@H]2OC(=O)[C@@H](CN[C@@H](Cc3ccccc3)C(=O)O)[C@@H]2CC1 [C00010]	16.0 μL min^–1 per million cells	1.47	–	3.66	–	1.5	4.2	9	160	> 2	4.87	–	–	–	–	–	–	Caco-2 pH 7.4 Efflux ratio [3]: 2.7
C/C1=C\CC[C@@]2(C)O[C@@H]2[C@H]2OC(=O)[C@@H](CN3CCCC3)[C@@H]2CC1 [C00011]	–	–	–	–	–	–	–	–	–	–	–	711	283	80.5	207	0.66	–	Tmax ([6]; PO 10 mg kg^–1): 0.5 h; bioavailability ([6]; PO 10 mg kg^–1): 95.8%; Vd [7]: 11.6 L/kg
C/C1=C\CC[C@@]2(C)O[C@@H]2[C@H]2OC(=O)[C@@H](CN3CCC(c4cc(O)nc(C)n4)CC3)[C@@H]2CC1 [C00012]	–	–	–	–	–	–	–	–	–	–	5.11	1696	–	289	–	–	–	Mouse PK (PO) Cmax ([6]; PO 10 mg kg^–1): 404 ng mL^–1; Tmax ([6]; PO 10 mg kg^–1): 1 h; bioavailability ([6]; PO 10 mg kg^–1): 58.5%; Mouse PK (IV) Cl [7]: 58 mL min^–1 kg^–1; Mouse PK (IV) T1/2 [7]: 1.14 h; Vd [7]: 4.62 L/kg
CC1=CCCC2(C)OC2C2OC(=O)C(CN3CCCC3)C2CC1 (stereo not shown) [Compound 5a]	–	–	> 4.82	2.35	1	–	–	–	–	–	5.11	711	283	80.5	207	0.66	45	EC50 (MEC1 CLL cell line [2]; [13]): 7.76 µM; pIC50 (hERG K+ channel): < 4.00; half-life [6]: 0.5 h; microsomal CLint [4]: 19 µL/min/mg; stability in aqueous solution [5]: greater than two hours
C/C1=C\CC[C@@]2(C)O[C@@H]2[C@H]2OC(=O)[C@@H](CN3CCC(O)(c4ccccc4)CC3)[C@@H]2CC1 [Compound 5e]	–	–	–	–	–	–	–	–	–	–	> 4.82	–	–	–	–	–	–	microsomal CLint (in vitro): > 100 µL/min/mg
C/C1=C\CC[C@@]2(C)O[C@@H]2[C@H]2OC(=O)[C@@H](CN3CCC(c4cc(O)nc(C)n4)CC3)[C@@H]2CC1 [Compound 5f]	–	–	> 4.82	3.69	1.1	–	–	–	–	–	5.11	1696	404	289	58	1.14	24	EC50 (MEC1 CLL cell line [2]; [13]): 7.76 µM; pEC50 (MEC1 CLL cell line [2]; Homo sapiens, MEC1, MEC1 cells, alamarBlue, 1, 5f and 7 compared in parallel, CalcuSyn, read-out: EC50): 5.37; pEC50 (MEC1 CLL cell line [2]; [14]): 5.35; effect of NAC pre-treatment on activity (MEC1 CLL cell line [2]; MEC1 cells, pre-treatment with N-acetylcysteine (NAC)): abrogated activity; hERG liability flag (hERG K+ channel): inactive; pIC50 (hERG K+ channel; human): < 4.00; half-life [6]: 1 h; microsomal CLint [4]: 18 µL/min/mg; stability in aqueous solution [5]: greater than two hours
C/C1=C\CC[C@@]2(C)O[C@@H]2[C@H]2OC(=O)[C@@H](CN(C)C)[C@@H]2CC1 [DMAPT, dimethyl amino-PTL, reference compound]	–	–	–	3.19	–	–	–	–	–	–	–	–	–	–	–	–	40	pEC50 (MEC1 CLL cell line [2]; [14]): 5.25; pIC50 (hERG K+ channel): < 4.00
C/C1=C\CC[C@@]2(C)O[C@@H]2[C@H]2OC(=O)[C@@H](CN(C)C)[C@@H]2CC1 [DMAPT, dimethyl amino-PTL]	–	–	–	–	–	–	–	–	–	–	–	–	–	–	–	–	–	EC50 (MEC1 CLL cell line [8]): 5.3 µM
